Earlier results, collected in patent US7468367B2, “Ethylene diamine derivatives and their use as orexin-receptor antagonists” (Smithkline Beecham p.l.c., priority 2001, dated 2008).

Assays:
freely-feeding rats = conditions: central administration, 4 hour time period
orexin receptors = conditions: central administration at the onset of the normal sleep period

orexin-A: peptide ligand and agonist of the orexin receptors; the human amino acid sequence is given in the 1st table (QPLPDCCRQKTCSCRLYELLHGAGNHAAGILTL; not fully specified; Orexin-A; UniProt O43612 34-66, looked up)
increase in food intake over control rats receiving vehicle (freely-feeding rats): approximately four-fold | arousal in rat sleep/EEG (orexin receptors): dose-related increase in arousal
